Test results reported in US12441768B2, “Compositions and methods for treating endometriosis” (EndoMet Biosciences, Inc., priority 2018, dated 2025).
Where a SMILES comes first, the peptide text is derived from it.

Target: T1, β-catenin (Homo sapiens, UniProt P35222)
T1 sequence (P35222 1-781): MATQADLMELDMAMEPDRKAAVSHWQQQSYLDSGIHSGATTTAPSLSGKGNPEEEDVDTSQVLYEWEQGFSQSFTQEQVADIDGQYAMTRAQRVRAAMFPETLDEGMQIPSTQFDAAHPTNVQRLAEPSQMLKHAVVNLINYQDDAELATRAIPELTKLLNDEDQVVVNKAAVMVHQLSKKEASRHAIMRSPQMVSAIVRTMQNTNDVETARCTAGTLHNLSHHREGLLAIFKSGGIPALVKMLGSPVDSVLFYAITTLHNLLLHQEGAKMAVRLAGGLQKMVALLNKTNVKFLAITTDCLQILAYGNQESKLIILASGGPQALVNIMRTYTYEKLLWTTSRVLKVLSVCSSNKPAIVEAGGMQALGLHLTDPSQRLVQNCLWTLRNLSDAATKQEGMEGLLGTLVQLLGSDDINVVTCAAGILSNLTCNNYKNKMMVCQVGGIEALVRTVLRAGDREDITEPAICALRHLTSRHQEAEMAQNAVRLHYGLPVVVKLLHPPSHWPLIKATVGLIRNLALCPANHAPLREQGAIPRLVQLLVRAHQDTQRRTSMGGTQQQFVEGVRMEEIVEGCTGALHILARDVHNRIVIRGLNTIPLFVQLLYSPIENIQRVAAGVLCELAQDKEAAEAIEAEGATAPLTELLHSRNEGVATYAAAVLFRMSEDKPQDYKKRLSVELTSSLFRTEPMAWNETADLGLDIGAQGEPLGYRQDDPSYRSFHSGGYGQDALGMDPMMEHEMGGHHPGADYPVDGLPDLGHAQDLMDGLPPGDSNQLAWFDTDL
Test: KD50 measurement using competitive fluorescence polarization (FP) with labelled TCF4
Type: binding
Conditions: fluorescence polarization, β-catenin; for Kd: read-out: β-Cat FP KD
Excerpt: Fluorescence polarization (FP) is another method used to analyze protein-ligand interactions. This methodology measures the change in fluorescence light emitted by a labelled compound free vs. conjugated to another compound in solution. Upon binding of the fluorescent molecule to a complex, polarization increases because of limited rotation of the fluorescent tracer. Competitive FP is often utilized in drug screens as it is formatted for high throughput screens in a plate format. This immunoassay is performed by introducing a non-conjugated drug to compete for binding to the labelled competitor-ligand complex, leading to a reduction in polarization. TCF4 protein is utilized for the competitive assay as (1) this protein influences the full activation of the Wnt pathway and (2) shares homology with the β-catenin inhibitors. Exemplary methodology is described in Example 13. Data were analyzed and plotted in Microsoft Excel (Microsoft, Redmond, WA).
5 nM of labelled TCF4 protein was added to solution of 100 nM of β-catenin and incubated at room temperature in 96-well plates (Greiner 96 Flat transparent plates, Millipore Sigma, Carlsbad CA). Varying concentrations of β-catenin inhibitor candidate (SEQ ID NO: 404) were then added in a series of serial dilutions from 10 nM to 30 uM of inhibitor in different wells of the plate. The fluorescence polarization was read by Infinite M1000 (Tecan, Baldwin Park CA) at excitation wavelength of 470 nm and measured at emission wavelength of 520 nm. […] The experiments were performed three times and data were analyzed and plotted in Microsoft Excel (Microsoft, Redmond, WA).

SMILES	β-Cat FP Hill slope	Kd [nM]
CC[C@H](C)[C@@H]1NC(=O)[C@H](CC(C)C)NC(=O)[C@H](Cc2ccccc2)NC(=O)[C@H](Cc2c[nH]c3ccccc23)NC(=O)[C@@H](N)CCCCNC(=O)CC[C@@H](C(=O)NCC(=O)O)NC(=O)[C@H](Cc2c[nH]c3ccccc23)NC(=O)[C@H](Cc2ccccc2)NC(=O)[C@H](CS)NC1=O [compound 272] (HELM PEPTIDE1{K.W.F.L.I.C.F.W.E.G}$PEPTIDE1,PEPTIDE1,1:R3-9:R3$$$V2.0)	0.84	1000 to 10000
CC[C@H](C)[C@@H]1NC(=O)[C@@H](NC(=O)[C@H](CCC(N)=O)NC(=O)[C@H](C)N(C)C(=O)[C@H](Cc2c[nH]c3ccccc23)NC(C)=O)CCCCNC(=O)C[C@@H](C(=O)N[C@@H](Cc2c[nH]cn2)C(=O)N[C@H](C(=O)N[C@@H](CCC(N)=O)C(=O)N[C@@H](C)C(=O)N[C@H](C(=O)N[C@@H](Cc2c[nH]c3ccccc23)C(N)=O)C(C)C)C2CCCCC2)NC(=O)[C@H](CC(N)=O)NC(=O)[C@H](CC(C)C)NC1=O [compound 458] (HELM PEPTIDE1{[ac].W.[meA].Q.K.I.L.N.D.H.[O=C([C@@H](N[*:1])C1CCCCC1)[*:2]].Q.A.V.W.[am]}$PEPTIDE1,PEPTIDE1,5:R3-9:R3$$$V2.0)	0.7	400 to 1000
CC[C@H](C)[C@@H]1NC(=O)[C@@H](NC(=O)[C@H](CCC(N)=O)NC(=O)[C@H](C)N(C)C(=O)[C@H](Cc2c[nH]c3ccccc23)NC(C)=O)CCCCNC(=O)CC[C@@H](C(=O)N[C@@H](Cc2c[nH]cn2)C(=O)N[C@H](C(=O)N[C@@H](CO)C(=O)N[C@@H](CCCNC(=N)N)C(=O)N[C@H](C(=O)N[C@@H](Cc2c[nH]c3ccccc23)C(=O)NCC(N)=O)C(C)C)C2CCCCC2)NC(=O)[C@H](CC(=O)O)NC(=O)[C@H](CC(C)C)NC1=O [compound 416] (HELM PEPTIDE1{[ac].W.[meA].Q.K.I.L.D.E.H.[O=C([C@@H](N[*:1])C1CCCCC1)[*:2]].S.R.V.W.G.[am]}$PEPTIDE1,PEPTIDE1,5:R3-9:R3$$$V2.0)	0.7	< 400
CC[C@H](C)[C@@H]1NC(=O)[C@H](CC(C)C)NC(=O)[C@H](Cc2ccccc2)NC(=O)[C@H](Cc2c[nH]c3ccccc23)NC(=O)[C@@H](N)CCCCNC(=O)CC[C@@H](C(=O)N[C@@H](Cc2ccccc2)C(=O)N[C@@H](Cc2c[nH]c3ccccc23)C(=O)NCC(=O)O)NC1=O [compound 229] (HELM PEPTIDE1{K.W.F.L.I.E.F.W.G}$PEPTIDE1,PEPTIDE1,1:R3-6:R3$$$V2.0)	0.43	1000 to 10000
CC[C@H](C)[C@H](NC(=O)[C@H](CC(=O)O)NC(=O)[C@H](CCCNC(=N)N)NC(=O)[C@H](CC(C)C)NC(=O)[C@@H](NC(=O)[C@H](CCC(N)=O)NC(=O)[C@H](CC(C)C)NC(=O)[C@H](CO)NC(=O)[C@H](CCCNC(=N)N)NC(=O)[C@H](CCC(=O)O)NC(=O)[C@H](CCCNC(=N)N)NC(=O)[C@H](Cc1c[nH]cn1)NC(=O)[C@H](CCC(=O)O)NC(=O)[C@H](CC(C)C)NC(=O)[C@H](CCC(N)=O)NC(=O)[C@H](CCC(=O)O)NC(=O)[C@H](CCC(N)=O)NC(=O)[C@H](CO)NC(=O)[C@H](CC(C)C)NC(=O)CNC(=O)[C@H](CC(=O)O)NC(=O)[C@@H]1CCCN1C(=O)[C@H](CC(N)=O)NC(C)=O)[C@@H](C)O)C(=O)N[C@@H](CCC(N)=O)C(=O)N[C@@H](CCCNC(=N)N)C(=O)N[C@@H](CCSC)C(=O)N[C@@H](CC(C)C)C(=O)N[C@@H](Cc1ccccc1)C(=O)N1CCC[C@H]1C(=O)N[C@@H](CC(=O)O)C(=O)N[C@@H](CCC(=O)O)C(=O)N[C@@H](CCCCN)C(=O)N[C@@H](CCC(=O)O)C(=O)N[C@@H](Cc1ccccc1)C(=O)N[C@H](C(=O)NCCC(=O)NCCC(=O)N[C@@H](CCCCN)C(N)=O)[C@@H](C)O [compound 270]		> 30000
